The values that follow come from patent US20080058213A1, “Benzoxazole Compounds” (priority 2004, published 2008).

Each structure is given as a SMILES string.

What all share (type): in vivo
Data set [1] deals with barnyard grass (Echinochloa crusgalli). Nature of the data set: Weed control test for paddy field (Test Example 1): barnyard grass. As to conditions: paddy pots, treated at 1.0 leaf stage of barnyard grass, examined after 3 weeks. The source says:
(§1) Paddy field soil was filled in 1/10,000 are pots, kneaded with adequate amounts of water and chemical fertilizer, seeded with barnyard grass (Echinochloa crusgalli), Monochoria (Monochoria vaginalis), Japanese bulrush (Scirpus juncoides) and flat sedge (Cyperus serotinus), and further transplanted with 2.0 leaf stage of rice plant. The pots were maintained under the water-filled condition to a depth of 3 cm.
(§2) Wettable powders containing the compounds (1) as identified in Table 1, which were formulated following Production Example 2, were diluted with adequate amount of water and applied to the pots dropwise with pippet at a prescribed dose of the active ingredients per are, at 1.0 leaf stage of the barnyard grass.
(§3) After placing the pots in a glasshouse which was controlled at an average temperature of 25° C. for 3 weeks, herbicidal effect was examined.
(§4) Evaluation of the herbicidal effect is shown in the following six grades, by comparing the condition of untreated control and growth inhibition (%): • 0: 0%-less than 20% • 1: 20%-less than 40% • 2: 40%-less than 60% • 3: 60%-less than 80% • 4: 80%-less than 100% • 5: 100%.

For data set [2], the system named is Monochoria (Monochoria vaginalis). Nature of the data set: Weed control test for paddy field (Test Example 1): Monochoria. As to conditions: paddy pots, treated at 1.0 leaf stage of barnyard grass, examined after 3 weeks.
Source text: as §1, §2, §3, §4

In data set [3] the test system is Japanese bulrush (Scirpus juncoides). Nature of the data set: Weed control test for paddy field (Test Example 1): Japanese bulrush. The conditions noted are these: paddy pots, treated at 1.0 leaf stage of barnyard grass, examined after 3 weeks.
Source text: as §1, §2, §3, §4

In data set [4] the test system is flat sedge (Cyperus serotinus). Nature of the data set: Weed control test for paddy field (Test Example 1): flat sedge. As to conditions: paddy pots, treated at 1.0 leaf stage of barnyard grass, examined after 3 weeks.
Source text: as §1, §2, §3, §4

Another data set has as its system rice plant. Nature of the data set: Weed control test for paddy field (Test Example 1): phytotoxicity to rice plant. The conditions noted are these: paddy pots, treated at 1.0 leaf stage of barnyard grass, examined after 3 weeks.
Source text: as §1, §2, §3
(§5) Evaluation of phytotoxicity is shown in the following six grades, as compared with the condition of untreated control: • 0: normal growth • 1: little damaged • 2: low damaged • 3: medium damaged • 4: serious damaged • 5: complete killed.

The test system of data set [5] is southern crabgrass (Digitaria ciliaris). Nature of the data set: Soil treatment test for upland field (Test Example 2): southern crabgrass. As to conditions: soil treatment before germination, examined after 3 weeks.
Source text: as §4
(§6) Upland field soil was filled in 1/3,000 are pots, seeded with southern crabgrass (Digitaria ciliaris), common lambsquaters (Chenopodium album), slender amaranth (Amaranthus viridis), common purslane (Portulaca oleracea), velvetleaf (Abutilon theophrasti), wheat, corn and soybean. The seeds were covered up with the soil.
(§7) Wettable powders containing the object compounds (1) as identified in Table 1, which were formulated following Preparation Example 2, were diluted with adequate amount of water to secure the prescribed dose of the active ingredient, and uniformly sprayed onto the surface soil layer after the seeding and before germination of the weeds, at an application water of 15 liters per are.
(§8) After placing the test pots in a glasshouse which was kept at an average temperature of 25° C. for 3 weeks, the herbicidal effect was examined.
(§9) Evaluations of the herbicidal effect and phytotoxicity were made in the manner similar to those in the above Test Example 1.

For data set [6], the system named is common lambsquaters (Chenopodium album). Nature of the data set: Soil treatment test for upland field (Test Example 2): common lambsquaters. The conditions noted are these: soil treatment before germination, examined after 3 weeks.
Source text: as §4, §6, §7, §8, §9

Data set [7] concerns slender amaranth (Amaranthus viridis). Nature of the data set: Soil treatment test for upland field (Test Example 2): slender amaranth. As to conditions: soil treatment before germination, examined after 3 weeks.
Source text: as §4, §6, §7, §8, §9

Data set [8] concerns common purslane (Portulaca oleracea). Nature of the data set: Soil treatment test for upland field (Test Example 2): common purslane. The conditions noted are these: soil treatment before germination, examined after 3 weeks.
Source text: as §4, §6, §7, §8, §9

Data set [9] relates to velvetleaf (Abutilon theophrasti). Nature of the data set: Soil treatment test for upland field (Test Example 2): velvetleaf. The conditions noted are these: soil treatment before germination, examined after 3 weeks.
Source text: as §4, §6, §7, §8, §9

A further data set relates to wheat. Nature of the data set: Soil treatment test for upland field (Test Example 2): phytotoxicity to wheat. The conditions noted are these: soil treatment before germination, examined after 3 weeks.
Source text: as §5, §6, §8

The subject of a further data set is corn. Nature of the data set: Soil treatment test for upland field (Test Example 2): phytotoxicity to corn. The conditions noted are these: soil treatment before germination, examined after 3 weeks.
Source text: as §5, §6, §8

A further data set concerns soybean. Nature of the data set: Soil treatment test for upland field (Test Example 2): phytotoxicity to soybean. As to conditions: soil treatment before germination, examined after 3 weeks.
Source text: as §5, §6, §8

Take `CSCC(=Cc1cccc(C(F)(F)F)c1)c1nc2cc(Cl)ccc2o1` [Compound 30]: the “Herbicidal Effect Barnyard grass” value in data set [1] (dose 2.5 g ai/a) is on record as 4 (80%-less than 100%); in data set [1] (dose 5 g ai/a) it was 5 (100%). The “Herbicidal Effect Monochoria vaginalis” value in [2] (dose 2.5 g ai/a) and in data set [2] (dose 5 g ai/a) was 5 (100%) in each case. Besides, the results for the “Herbicidal Effect Japanese bulrush” value in [3] (dose 2.5 g ai/a) and in data set [3] (dose 5 g ai/a) were 4 (80%-less than 100%) and 5 (100%), respectively. For the same compound, the “Herbicidal Effect Flat sedge” value in data set [4] (dose 2.5 g ai/a) was 3 (60%-less than 80%); in data set [4] (dose 5 g ai/a) it was 5 (100%). For the same compound, the “Phytotoxicity Rice plant” value in the data set with rice plant (dose 2.5 g ai/a) and in the data set with rice plant (dose 5 g ai/a) was 0 in each case. Moreover, the “Herbicidal Effect southern crabgrass” value in data set [5] (dose 2.5 g ai/a) is reported as 3 (60%-less than 80%); in data set [5] (dose 5 g ai/a), 5 (100%). In addition, the “Herbicidal Effect common lambsquaters” value in data set [6] (dose 2.5 g ai/a) and in data set [6] (dose 5 g ai/a) was 4 (80%-less than 100%) in each case. The “Herbicidal Effect slender amaranth” value in [7] (dose 2.5 g ai/a) and in data set [7] (dose 5 g ai/a) was 5 (100%) throughout. Moreover, the “Herbicidal Effect common purslane” value in data set [8] (dose 2.5 g ai/a) and in [8] (dose 5 g ai/a) was 5 (100%) each time. Besides, the “Herbicidal Effect velvetleaf” value in data set [9] (dose 2.5 g ai/a) and in data set [9] (dose 5 g ai/a) was 2 (40%-less than 60%) each time. Besides, the Phytotoxicity wheat in the data set with wheat (dose 2.5 g ai/a) is 0; in the data set with wheat (dose 5 g ai/a), 1. Moreover, the Phytotoxicity corn with corn (dose 2.5 g ai/a) and with corn (dose 5 g ai/a) was 0 each time. Besides, the Phytotoxicity soybean with soybean (dose 2.5 g ai/a) and with soybean (dose 5 g ai/a) was 0 in each case.
For `CCOCC(=Cc1cccc(C(F)(F)F)c1)c1nc2cc(F)cc(F)c2o1` [Compound 112], the results for the “Herbicidal Effect Barnyard grass” value in [1] (dose 2.5 g ai/a) and in data set [1] (dose 5 g ai/a) were 4 (80%-less than 100%) and 5 (100%), respectively. Besides, the “Herbicidal Effect Monochoria vaginalis” value in data set [2] (dose 2.5 g ai/a) and in [2] (dose 5 g ai/a) was 5 (100%) throughout. The entries for the “Herbicidal Effect Japanese bulrush” value in data set [3] (dose 2.5 g ai/a) and in data set [3] (dose 5 g ai/a) were 4 (80%-less than 100%) and 5 (100%), respectively. The figures for the “Herbicidal Effect Flat sedge” value in [4] (dose 2.5 g ai/a) and in [4] (dose 5 g ai/a) were 3 (60%-less than 80%) and 4 (80%-less than 100%), respectively. Moreover, the “Phytotoxicity Rice plant” value in the data set with rice plant (dose 2.5 g ai/a) is reported as 0; in the data set on rice plant (dose 5 g ai/a), 1.
